Bounds are passed on as bounds.

Common to all, as to assay type: biochemical
Common to all, as to details: HotSpot functional assay, isolated kinase enzyme, 33P-ATP

For one assay, the target named is T1, IRAK4 (Homo sapiens, UniProt Q9NWZ3).
T1 sequence (Q9NWZ3 1-460): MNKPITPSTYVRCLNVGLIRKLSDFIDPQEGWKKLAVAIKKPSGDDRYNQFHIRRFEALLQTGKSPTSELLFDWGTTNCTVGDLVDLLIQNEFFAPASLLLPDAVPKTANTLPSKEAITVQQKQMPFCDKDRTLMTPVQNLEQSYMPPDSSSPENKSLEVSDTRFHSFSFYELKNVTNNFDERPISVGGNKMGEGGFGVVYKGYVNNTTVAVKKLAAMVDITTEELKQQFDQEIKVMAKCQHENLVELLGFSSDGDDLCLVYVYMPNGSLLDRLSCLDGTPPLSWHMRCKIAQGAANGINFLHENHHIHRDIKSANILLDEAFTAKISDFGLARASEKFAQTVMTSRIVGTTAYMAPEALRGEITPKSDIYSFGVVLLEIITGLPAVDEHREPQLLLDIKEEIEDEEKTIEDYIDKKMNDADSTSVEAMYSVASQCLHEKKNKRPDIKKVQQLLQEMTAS
As to the kind of experiment: RBC HotSpot Kinase Assay, IRAK4. Details: purchased RBC (Reaction Biology) HotSpot assay. An excerpt:
(§1) This assay uses the isolated kinase enzyme. This assay is very useful for determining competition of the inhibitor for ATP and/or substrates and for measuring the kinetics of enzyme inhibition. […] Unlike kinase binding assays that measure competition for ATP, the HotSpot Kinase Assay is a functional assay that measures catalytic activity; as such it measures relative functional potency regardless of the mechanism of enzyme inhibition. This assay uses the form of the various enzymes that are easiest to express, which may not necessarily be the form of the enzyme that exist in the cell. (Sometimes the carboxy terminus has been truncated to aid in expression, or, if it is a receptor kinase, the enzyme itself is isolated from the other parts of the receptor that are involved in regulating kinase activity.)
(§2) The reagent used was as follows: Base Reaction buffer; 20 mM Hepes (pH 7.5), 10 mM MgCl2, 1 mM EGTA, 0.01% Brij35, 0.02 mg/mi BSA, 0.1 mM Na3VO4, 2 mM DTT, 1% DMSO. Required cofactors were added individually to each kinase reaction.
(§3) The reaction procedure was as follows: • 1) Substrates were prepared in freshly prepared Reaction Buffer. • 2) Any required cofactors were delivered to the substrate solution above. • 3) Kinase was delivered into the substrate solution and gently mixed. • 4) Compounds were delivered in 100% DMSO into the kinase reaction mixture by Acoustic technology (Echo550, nanoliter range), followed by incubation for 20 min at room temp. • 5) ^33P-ATP was delivered into the reaction mixture to initiate the reaction. • 6) The mixture was incubated for 2 hours at room temperature. • 7) Kinase activity was detected by P81 filter-binding method.

In a further assay the target is T2, IRAK1 (Homo sapiens, UniProt P51617).
T2 construct: purchased RBC (Reaction Biology) HotSpot assay
T2 sequence (P51617 whole entry): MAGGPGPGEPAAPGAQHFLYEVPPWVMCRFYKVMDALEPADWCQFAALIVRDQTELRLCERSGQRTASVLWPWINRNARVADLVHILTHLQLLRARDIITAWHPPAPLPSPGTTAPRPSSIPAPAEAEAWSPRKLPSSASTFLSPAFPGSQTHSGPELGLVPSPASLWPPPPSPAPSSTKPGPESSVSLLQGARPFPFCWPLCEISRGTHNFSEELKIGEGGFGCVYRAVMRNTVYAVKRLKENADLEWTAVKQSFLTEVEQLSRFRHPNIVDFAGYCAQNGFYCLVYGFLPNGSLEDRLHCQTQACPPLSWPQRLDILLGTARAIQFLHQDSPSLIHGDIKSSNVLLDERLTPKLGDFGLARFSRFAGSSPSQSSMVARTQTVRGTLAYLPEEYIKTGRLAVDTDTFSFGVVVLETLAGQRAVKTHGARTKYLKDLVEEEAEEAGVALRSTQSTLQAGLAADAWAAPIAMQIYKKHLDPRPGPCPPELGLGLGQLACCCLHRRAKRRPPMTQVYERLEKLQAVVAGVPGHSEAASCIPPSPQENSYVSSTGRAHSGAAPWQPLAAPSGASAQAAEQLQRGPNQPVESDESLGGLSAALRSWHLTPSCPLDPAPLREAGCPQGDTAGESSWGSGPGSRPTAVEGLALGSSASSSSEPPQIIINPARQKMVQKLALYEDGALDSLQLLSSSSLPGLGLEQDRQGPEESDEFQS
Nature of the assay: RBC HotSpot Kinase Assay, IRAK1.
Text: as §1, §2, §3

For another assay, the target named is T3, FLT3 (Homo sapiens, UniProt P36888).
T3 sequence (P36888 27-993): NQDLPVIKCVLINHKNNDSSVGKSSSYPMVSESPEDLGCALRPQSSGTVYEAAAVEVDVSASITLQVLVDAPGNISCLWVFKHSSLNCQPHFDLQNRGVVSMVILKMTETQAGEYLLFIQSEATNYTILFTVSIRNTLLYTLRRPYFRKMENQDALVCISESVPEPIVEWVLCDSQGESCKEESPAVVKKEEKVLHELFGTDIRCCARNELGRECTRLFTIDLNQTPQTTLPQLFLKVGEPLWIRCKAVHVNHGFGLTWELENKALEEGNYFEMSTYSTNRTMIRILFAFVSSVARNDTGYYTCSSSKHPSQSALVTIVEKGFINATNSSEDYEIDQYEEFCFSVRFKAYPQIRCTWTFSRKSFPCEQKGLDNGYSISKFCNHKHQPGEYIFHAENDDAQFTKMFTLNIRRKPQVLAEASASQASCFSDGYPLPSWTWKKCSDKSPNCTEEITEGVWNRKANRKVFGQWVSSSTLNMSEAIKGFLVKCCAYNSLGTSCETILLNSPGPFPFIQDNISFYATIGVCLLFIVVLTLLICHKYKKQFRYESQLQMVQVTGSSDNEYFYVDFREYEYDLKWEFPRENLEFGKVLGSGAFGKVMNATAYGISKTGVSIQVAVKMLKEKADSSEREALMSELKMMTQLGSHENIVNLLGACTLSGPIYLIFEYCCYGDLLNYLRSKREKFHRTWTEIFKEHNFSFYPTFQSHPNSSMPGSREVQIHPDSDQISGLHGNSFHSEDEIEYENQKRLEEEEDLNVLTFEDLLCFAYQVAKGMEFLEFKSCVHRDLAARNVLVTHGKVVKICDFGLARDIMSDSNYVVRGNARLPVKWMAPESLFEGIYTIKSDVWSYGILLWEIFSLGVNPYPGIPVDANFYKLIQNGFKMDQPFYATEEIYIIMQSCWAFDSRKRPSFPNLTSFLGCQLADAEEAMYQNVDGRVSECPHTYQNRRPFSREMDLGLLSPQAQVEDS
As to the kind of experiment: RBC HotSpot Kinase Assay, FLT3. More on the design: purchased RBC (Reaction Biology) HotSpot assay.
Text: as §1, §2, §3

What is called IC50 is the concentration at which inhibition is half-maximal. For the compound `COc1cc2ncc(-c3nc(N[C@H]4CNC[C@@H]4F)c(F)cc3F)n2nc1C1CCCC1` [Compound 16a, 6-(6-cyclopentyl-7-methoxyimidazo[1,2-b]pyridazin-3-yl)-3,5-difluoro-N-((3S,4S)-4-fluoropyrrolidin-3-yl)pyridin-2-amine], the IC50 on IRAK4 was 2 nM; at IRAK1 it was 7 nM; against FLT3, less than 0.5 nM.
Consider `COc1cc2ncc(-c3nc(N[C@@H]4CCCNC4)c(F)cc3F)n2nc1C1CCCC1` [Compound 17a, (R)-6-(6-cyclopentyl-7-methoxyimidazo[1,2-b]pyridazin-3-yl)-3,5-difluoro-N-(piperidin-3-yl)pyridin-2-amine], for which the IC50 against IRAK4 is 2 nM; against IRAK1, 7 nM; against FLT3, less than 0.5 nM.
Consider `COc1cc2ncc(-c3nc(N[C@H]4CNCC[C@@H]4F)c(F)cc3F)n2nc1C1CCCC1` [Compound 18a, 6-(6-cyclopentyl-7-methoxyimidazo[1,2-b]pyridazin-3-yl)-3,5-difluoro-N-((3S,4S)-4-fluoropiperidin-3-yl)pyridin-2-amine], for which the IC50 is 0.6 nM against IRAK4, 3 nM on IRAK1 and less than 0.5 nM against FLT3.
The matching figures for `COc1cc2ncc(-c3nc(N[C@H]4CNC[C@@H]4F)c(F)cc3F)n2nc1C1CCCCC1` [Compound 19a, 6-(6-cyclohexyl-7-methoxyimidazo[1,2-b]pyridazin-3-yl)-3,5-difluoro-N-((3S,4S)-4-fluoropyrrolidin-3-yl)pyridin-2-amine]: 3 nM, 17 nM and less than 0.5 nM.
The matching figures for `COc1cc2ncc(-c3nc(N[C@@H]4CCCNC4)c(F)cc3F)n2nc1C1CCCCC1` [Compound 20a, (R)-6-(6-cyclohexyl-7-methoxyimidazo[1,2-b]pyridazin-3-yl)-3,5-difluoro-N-(piperidin-3-yl)pyridin-2-amine]: 6 nM, 6 nM and less than 0.5 nM.
With `COc1cc2ncc(-c3nc(N[C@H]4CNCC[C@@H]4F)c(F)cc3F)n2nc1C1CCCCC1` [Compound 21a, 6-(6-cyclohexyl-7-methoxyimidazo[1,2-b]pyridazin-3-yl)-3,5-difluoro-N-((3S,4S)-4-fluoropiperidin-3-yl)pyridin-2-amine], the IC50 was 21 nM against IRAK4, 5 nM against IRAK1 and less than 0.5 nM at FLT3.
For `COc1cc2ncc(-c3nc(N[C@H]4CNCC[C@@H]4F)c(F)cc3F)n2nc1N1CCCC1=O` [Compound 22a, 1-(3-(3,5-difluoro-6-(((3S,4S)-4-fluoropiperidin-3-yl)amino)pyridin-2-yl)-7-methoxyimidazo[1,2-b]pyridazin-6-yl)pyrrolidin-2-one], the IC50 at IRAK4 is 9 nM; against IRAK1, 55 nM; against FLT3, less than 0.5 nM.
Consider `COc1cc2ncc(-c3nc(N[C@@H]4CCCNC4)c(F)cc3F)n2nc1N1CCCC1=O` [Compound 23a, (R)-1-(3-(3,5-difluoro-6-(piperidin-3-ylamino)pyridin-2-yl)-7-methoxyimidazo[1,2-b]pyridazin-6-yl)pyrrolidin-2-one], for which the IC50 against IRAK4 was determined as 48 nM; at IRAK1, 348 nM; against FLT3 it was 2 nM.
With `COc1cc2ncc(-c3nc(N[C@H]4CNC[C@@H]4F)c(F)cc3F)n2nc1N1CCCC1=O` [Compound 24a, 1-(3-(3,5-difluoro-6-(((3S,4S)-4-fluoropyrrolidin-3-yl)amino)pyridin-2-yl)-7-methoxyimidazo[1,2-b]pyridazin-6-yl)pyrrolidin-2-one], the IC50 was determined as 11 nM against IRAK4, 186 nM at IRAK1 and 1 nM against FLT3.
For the compound `COc1cc2ncc(-c3ccc(C#N)c(N[C@H]4CNC[C@@H]4F)n3)n2nc1C1CC1` [Compound 27a, 6-(6-cyclopropyl-7-methoxyimidazo[1,2-b]pyridazin-3-yl)-2-(((3S,4S)-4-fluoropyrrolidin-3-yl)amino) nicotinonitrile], the IC50 was less than 0.5 nM at IRAK4, 5 nM on IRAK1 and less than 0.5 nM against FLT3.

For the origin of these results see US20250368648A1, “MULTI-CYCLIC IRAK AND FLT3 INHIBITING COMPOUNDS AND USES THEREOF” (CHILDREN'S HOSPITAL MEDICAL CENTER, priority 2022, published 2025).
